Experimental data published in patent US20060106099A1, “Novel inhibitors of ubiquitin isopeptidases” (priority 2002, published 2006).

How the values were obtained:
[1] = tested on: RKO-E6 cells
[2] = tested on: ubiquitin isopeptidases; experiment: Ubiquitin isopeptidase activity, z-LRGG-AMC substrate, lysates of treated RKO and HCT 116 cells; format: cell-based, human; conditions: cells treated 6, 20 or 60 μM, 12 h
Description: RKO (upper) and HCT 116 ^+/+ cells (lower) were treated with DMSO vehicle, 6, 20, or 60 μM of Δ12-PGJ2, DBA, NSC-302979, or curcumin, 60 μM PGB1, 60 μM NSC-156236, or 60 μM DPTP for 12 h at 37° C. Cell lysates (0.5 mg/mL) from each treatment were incubated with the isopeptidase substrate, z-LRGG-AMC, for 3 h, 37° C. The amount of AMC cleaved by isopeptidase was determined fluorometrically, as described in Materials and Methods.
The second assay used a fluorescent tetrapeptide, z-LRGG-AMC, as a substrate that mimics the carboxy-terminus of ubiquitin. Isopeptidase activity hydrolyzes the bond between the c-terminal glycine and the fluorophore. This tetrapeptide also undergoes slow proteolysis by the catalytic subunit of the proteasome. To minimize this background rate of proteolysis cell lysates were incubated with 30 μM MG115 for 30 minutes at 4° C., prior to substrate incubation (>90% proteasome inhibition). Cells were teeated as above, lysed in 250 μL of lysis buffer per sample, and adjusted protein concentration to 0.5 mg/mL prior to incubation with MG115. Next, z-LRGG-AMC substrate was added and fluorescence was quantified of the AMC moiety cleaved by isopeptidase action.

[3] = tested on: RKO cells
Description: (§1) Cell viability was measured with MTT reagent as described in materials and methods.
(§2) Cell viability was detected by the MTT assay. Briefly, 1×10^5 cells were incubated per well of a sterile, 96-well assay plate with 0-60 μM of test compounds for 48 hours. MTT reagent was added to each well, final concentration of 0.5 mg/mL, and incubated for an additional 3 hours. The media was aspirated and remaining MTT reagent from each well and added 100 μL of HCl:isopropanol (1:24). The absorbance of each sample was measured at 405 nm.

[4] = tested on: isopeptidase; conditions: cited from earlier work
[5] = tested on: HCT 116 +/+ cells
Description: as §1, §2

[6] = tested on: HCT 116 −/− cells
[7] = tested on: polyubiquitin conjugates in RKO-E6 cells; experiment: Accumulation of polyubiquitin in RKO-E6 cells (immunoblot); format: cell-based, human; conditions: EC80 or 60 μM, 6-24 h
Description: A) Accumulation of polyubiquitin. RKO-E6 cells were treated with DMSO vehicle for 24 h, 37° C., or with the concentrations of test compounds that gave 80% cell death (as determined by cell viability assay at 48 h) for 6, 12, or 24 h, 37° C. […] Schematic depicting p53 degradation via the proteasome pathway in RKO cells versus RKO-E6 cells. The activity of the HPV E6 oncoprotein hastens p53 degradation in RKO-E6 cells. ii. RKO and RKO-E6 cells were treated with vehicle, etoposide (50 μM), MG115 (20 μM), Δ12-PGJ2 (60 μM), NSC-302979 (20 μM, DBA (20 μM), curcumin (60 μM), PGB1 (60 μM), NSC-156236, (60 XM)or DPTP 60 μM for 6 h, 37° C. Lysates were fractionated by SDS-PAGE and their p53 content determined immunochemically. iii. p53 levels were measured by densitometry and the ratio of p53 protein in RKO-E6 cells/RKO cells calculated.
The medium was removed and cells lysed in 50 mM Tris, pH 7.4, 100 mM NaCl, 2 mM EDTA with 0.1% SDS, 0.1% deoxycholate, 1× complete protease inhibitor mixture. Protein concentration was measured by the Bradford method. Equal portions of the total cell lysate were fractionated from each sample (12.5 μg of protein) by SDS-PAGE. Proteins were transferred to poly(vinylidene difluoride) blocked with 5% (w/v) nonfat dry milk in Trisbuffered saline [20 mM Tris-HCl, pH 7.5, 100 mM sodium chloride, 0.1% (v/v) Tween 20]. Proteins were detected immunochemically by using primary antibodies directed against p53 (1:4000) or ubiquitin (1:1000), followed by horseradish peroxidase-conjugated secondary antibodies (1:4000). Antigen-antibody complexes were detected with enhanced chemiluminescence reagents. Gels were scanned and quantified intensities using Kodak 1D Image Analysis Software.

[8] = tested on: HCT 116 +/+ cells; experiment: MTT cell viability assay, HCT 116 p53 +/+ cells; conditions: 48 h, MTT, isogenic pair
Description: as §1, §2

[9] = tested on: p53; experiment: p53 accumulation, ratio RKO-E6 cells/RKO cells (immunoblot, densitometry); format: cell-based, human; conditions: 6 h; etoposide 50 μM, MG115, NSC-302979, DBA 20 μM, others 60 μM
Outline: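 RKO-E6 cells exposed at 37° C for 6, 12 or 24 h to compound concentrations giving 80% cell death at 48 h; for p53, RKO and RKO-E6 cells treated 6 h. Lysates (12.5 μg protein) immunoblotted for ubiquitin or p53 with ECL detection; p53 quantified by densitometry as RKO-E6/RKO ratio.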

[10] = tested on: RKO cells; experiment: MTT cell viability assay, RKO cells; conditions: 48 h, MTT, isogenic pair
Description: as §1, §2

[11] = tested on: ubiquitin isopeptidases; experiment: Ubiquitin isopeptidase activity, Ub-PEST substrate, lysates of treated RKO and HCT 116 cells; format: cell-based, human; conditions: cells treated 6, 20 or 60 μM, 12 h
Description: A) Inhibition of isopeptidase proteolysis of Ub-PEST substrate. RKO and HCT 116 cells were treated with DMSO vehicle, 6, 20, or 60 μM of Δ12-PGJ2, DBA, NSC-302979, or curcumin, 60 μM PGB1, 60 μM NSC-156236, or 60 μM DPTP for 12 h, 37° C. Cell lysates from each treatment were incubated with Ub-PEST, as described in materials and methods. Samples were fractionated by SDS-PAGE and proteins detected with ubiquitin epitopes immunochemically (HCT 116 ^+/+ western blot shown as example of raw data). […] B) Inhibition of isopeptidase activity by test panel compounds. Isopeptidase activity was determined by measuring via densitometry, the amount of Ub generated by isopeptidase cleavage of Ub-PEST. Bar graph patterns are DMSO vehicle (black), Δ12-PGJ2 (hatched), DBA (horizontal lines), NSC-302979 (white), PGB1 (diagonally downward right lines), and NSC-156236 (diagonally downward left lines). The amount of Ub generated in the vehicle treated sample (panel A, lane 2) is arbitrarily designated 100%.
Cellular isopeptidase enzymatic activity was measured with two assays that used different substrates. In one assay ubiquitin-PEST (Ub-PEST) was used, a full-length ubiquitin molecule with an 18 amino acid c-terminal peptide extension (total mass=10.5 kDa). Ubiquitin isopeptidases specifically cleave the 18 amino acid peptide extension, releasing full-length ubiquitin (8.5 kDa).
Briefly, 6×10^5 cells were incubated with 0-60 μM of test compounds for 12 hrs. Cells were lysed in 50 μL of 25 mM HEPES, 5 mM EDTA, 0.1% CHAPS, 5 mM ATP, pH 7.5. The protein concentration of each sample was adjusted to 0.3 mg/mL and incubated with 50 μg/mL Ub-PEST for 45 minutes at 25° C. Under these conditions, Ub-PEST hydrolysis occurs at a linear rate. 20 μL samples were mixed with 20 μL 2× Laemmli buffer, boiled briefly, and fractionated by SDSPAGE. Isopeptidase activity was monitored by determining the amount of product (8.5 kDa ubiquitin) formation.

SMILES: CCCCC[C@H](O)/C=C/C1=C(CCCCCCC(=O)O)C(=O)CC1 [PGB1]
- EC50 [1]: > 60 µM
- inhibition of z-LRGG-AMC hydrolysis by ubiquitin isopeptidases [2]: did not
- EC50 [3]: > 60 µM
- isopeptidase inhibition relative to Δ12-PGJ2 [4]: inactive
- EC50 [5]: > 60 µM
- EC50 [6]: > 60 µM
- cellular accumulation of polyubiquitin conjugates [7]: did not cause appreciable cellular accumulation of ubiquitin conjugates
- cell death in HCT 116 +/+ compared with HCT 116 −/− cells [8]: did not cause significant cell death
- ratio of p53 protein [RKO-E6 cells/RKO cells] [9]: significantly less than unity
- cell death in RKO compared with RKO-E6 cells [10]: did not cause significant cell death
- inhibition of isopeptidase cleavage of Ub-PEST [11]: did not inhibit isopeptidase activity
